Experimental data as given in patent US12441773B2, “Peptides, hydrogel compositions and methods of use thereof” (Regents of the University of Minnesota, priority 2019, dated 2025).
Where a SMILES comes first, the peptide text is derived from it. [ ]: non-standard residue; d: D form. The star is where a group is joined. MeOCH2CH2OCH2CO = COCCOCC(=O)*; PEG = not defined here; PEG1 = NCCOCCC(=O)O

How the values were obtained:
mouse skin burn = assay: Mouse burn wound healing model; assay type: in vivo; settings: seven days after the burn
in vitro = assay type: cell-based; settings: human, human red blood cells
Method: FIG. 7: The in vitro toxicity of soluble DGL13K and PEG-pro-DGL 13K was tested against human Red Blood Cells and hemolysis recorded (% lysis compared to dH2O).
The dose causing lysis of 50% (LD50) of human red blood cells (RBC) was determined and the therapeutic index (Tx Indx) was calculated as LD50/MIC.

[1] = Hydrogel formation with dilute sodium hydroxide, Crystal Violet overlay; assay type: physicochemical; settings: 8.3 mg/ml peptide, 16.7 mM NaOH, room temperature 5-10 min
Method: FIG. 2: Hydrogel formation of GL13 peptides. Hydrogels are overlaid with Crystal Violet solution. D=DGL13K; R=DGL13R; PEG-L=PEG-LGL13K; pro-D=PEG-pro-DGL13K; E4=PEG-E4-pro-DGL13K; L=LGL13K.
FIG. 8: Hydrogels were formed with 4.2 mg/ml peptide+sodium hydroxide at the concentrations shown. Hydrogels were overlaid with Crystal Violet. Two phases indicate the formation of a hydrogel; Phase mixing indicates the absence of hydrogel. The hydrogels formed at 6.7 mM NaOH were not stable overnight (not shown).
FIG. 9: Hydrogels were formed with 16.7 mM sodium hydroxide and peptides at the concentrations shown. D=DGL13K; L=LGL13K; R=DGL13R. Hydrogels were overlaid with Crystal Violet and imaged within 10 min. Two phases indicate the formation of a hydrogel; Phase mixing indicates the absence of hydrogel.
The antimicrobial peptide GL13K can form a hydrogel when the peptide is reacted with dilute sodium hydroxide. Hydrogels were formed by incubating 8.3 mg/ml peptide with 16.7 mM NaOH and incubating at room temperature for 5-10 min. Hydrogels were overlaid with Crystal Violet. Two phases indicate the formation of a hydrogel; Phase mixing indicates the absence of hydrogel.

P. aeruginosa = assay: Peptide hydrogels placed on P. aeruginosa plated on agar; assay type: cell-based, Pseudomonas aeruginosa; settings: hydrogel on agar plate
Method: FIG. 4: Peptide hydrogels on P. aeruginosa Ac.Ac.=0.01% acetic acid mixed with NaOH (buffer control).
(§1) To test antibacterial activity, S. aureus (FIG. 3) or P. aeruginosa (FIG. 4) were plated on agar and peptide hydrogels placed on top of the bacteria. The plates were incubated to allow a bacterial lawn to grow. […] The larger inhibition zone seen for DGL13R is consistent with a lack of hydrogel formation, which allowed the peptide solution to spread on the plate.

S. aureus = assay: Peptide hydrogels placed on S. aureus plated on agar; assay type: cell-based, Staphylococcus aureus; settings: hydrogel on agar plate
Method: FIG. 3. Peptide hydrogels on S. aureus.
as §1

Staphylococcus aureus = assay type: cell-based
Method: (§2) Standard broth dilution assays were performed to determine the Minimal Inhibitory Concentration (MIC) of each peptide against Pseudomonas aeruginosa (P.a.) or Staphylococcus aureus (S.a.) (Table 2).

Pseudomonas aeruginosa = assay type: cell-based
Method: as §2

[2] = assay type: physicochemical
Method: FIG. 1: Turbidity of peptide solutions at 630 nm. Peptides were suspended in 0.01% acetic acid (our standard peptide solvent), Phosphate-Buffered Saline (PBS), pH 7.4 or dH2O.
LGL13K and DGL13K are not soluble in physiological salt solution (PBS). […] In FIG. 1, solubility is measured as the absence of optical density (OD) due to turbidity at 630 nm.

[3] = system: Galleria mellonella (waxmoth larvae); settings: in vivo
Method: FIG. 6: Galleria mellonella (wax moth larvae) were injected with liquid or hydrogel forms of the listed peptide. Larval survival was monitored for 48 h.
Hydrogels are less toxic in vitro and in vivo than the unmodified peptide. To test toxicity in vivo, hydrogels of DGL13K, PEG-pro-DGL13K (PEG-DGL13K) or liquid PEG-DGL13K were injected into Galleria mellonella (waxmoth larvae) and survival monitored for 48 hrs (FIG. 6). […] Hydrogel of PEG-pro-DGL13K was less toxic than hydrogel of the unmodified DGL13K peptide.

Compound | Improved healing compared to SSD-treated mice (mouse skin burn) | Improved healing compared to the control mice (mouse skin burn; peptide in solution or hydrogel) | HC50 (in vitro) | Hydrogel formation [1] | Growth of P. aeruginosa lawn under peptide hydrogel (P. aeruginosa) | Growth of S. aureus lawn under peptide hydrogel (S. aureus) | Minimal Inhibitory Concentration S.a. (Staphylococcus aureus) | Minimal Inhibitory Concentration P.a. (Pseudomonas aeruginosa) | Solubility in physiological salt solution (PBS) [2] | Toxicity of hydrogel compared with hydrogel of unmodified DGL13K [3]
CC[C@@H](C)[C@@H](NC(=O)[C@@H](CCCCN)NC(=O)CN)C(=O)N[C@@H](C(=O)N[C@H](CCCCN)C(=O)N[C@H](CC(C)C)C(=O)N[C@H](CCCCN)C(=O)N[C@H](C)C(=O)N[C@H](CO)C(=O)N[C@H](CC(C)C)C(=O)N[C@H](CCCCN)C(=O)N[C@H](CC(C)C)C(=O)N[C@H](CC(C)C)C(N)=O)[C@H](C)CC [DGL13K, NH2-Gly-d-Lys-d-Ile-d-Ile-d-Lys-d-Leu-d-Lys-d-Ala-d-Ser-d-Leu-d-Lys-d-Leu-d-Leu-CONH2] (H-G[dK][dI][dI][dK][dL][dK][dA][dS][dL][dK][dL][dL]-NH2) | 48% | 36% | 500 µg/mL | formed hydrogels | effectively prevented the growth | prevented the growth | 1.3 to 2.6 µg/mL | 5.2 µg/mL |  | 
CC[C@@H](C)[C@@H](NC(=O)[C@@H](CCCNC(=N)N)NC(=O)CN)C(=O)N[C@@H](C(=O)N[C@H](CCCNC(=N)N)C(=O)N[C@H](CC(C)C)C(=O)N[C@H](CCCNC(=N)N)C(=O)N[C@H](C)C(=O)N[C@H](CO)C(=O)N[C@H](CC(C)C)C(=O)N[C@H](CCCNC(=N)N)C(=O)N[C@H](CC(C)C)C(=O)N[C@H](CC(C)C)C(N)=O)[C@H](C)CC [DGL13R, NH2-Gly-d-Arg-d-Ile-d-Ile-d-Arg-d-Leu-d-Arg-d-Ala-d-Ser-d-Leu-d-Arg-d-Leu-d-Leu-CONH2] (H-G[dR][dI][dI][dR][dL][dR][dA][dS][dL][dR][dL][dL]-NH2) |  |  | 500 µg/mL | did not form hydrogels | effectively prevented the growth |  | 1.3 to 2.6 µg/mL | 2.6 µg/mL | increased solubility | 
CC[C@@H](C)[C@@H](NC(=O)[C@@H](CCCCN)NC(=O)CNC(=O)CCOCCN)C(=O)N[C@@H](C(=O)N[C@H](CCCCN)C(=O)N[C@H](CC(C)C)C(=O)N[C@H](CCCCN)C(=O)N[C@H](C)C(=O)N[C@H](CO)C(=O)N[C@H](CC(C)C)C(=O)N[C@H](CCCCN)C(=O)N[C@H](CC(C)C)C(=O)N[C@H](CC(C)C)C(N)=O)[C@H](C)CC [PEG-DGL13K, PEG-Gly-d-Lys-d-Ile-d-Ile-d-Lys-d-Leu-d-Lys-d-Ala-d-Ser-d-Leu-d-Lys-d-Leu-d-Leu-CONH2] (H-[PEG1]G[dK][dI][dI][dK][dL][dK][dA][dS][dL][dK][dL][dL]-NH2) |  |  |  |  |  |  |  | 5 to 10.4 µg/mL | soluble in PBS | less toxic
CC[C@H](C)[C@H](NC(=O)[C@H](CCCCN)NC(=O)CNC(=O)COCCOC)C(=O)N[C@H](C(=O)N[C@@H](CCCCN)C(=O)N[C@@H](CC(C)C)C(=O)N[C@@H](CCCCN)C(=O)N[C@@H](C)C(=O)N[C@@H](CO)C(=O)N[C@@H](CC(C)C)C(=O)N[C@@H](CCCCN)C(=O)N[C@@H](CC(C)C)C(=O)N[C@@H](CC(C)C)C(N)=O)[C@@H](C)CC [PEG-LGL13K] (MeOCH2CH2OCH2CO-GKIIKLKASLKLL-NH2; N-terminus assumed) |  |  |  | formed hydrogels |  |  | 83 µg/mL | 20.8 µg/mL |  | 
CC[C@@H](C)[C@@H](NC(=O)[C@@H](CCCCN)NC(=O)CNC(=O)[C@@H](C)NC(=O)CNC(=O)CNC(=O)[C@@H](CC(C)C)NC(=O)CCOCCN)C(=O)N[C@@H](C(=O)N[C@H](CCCCN)C(=O)N[C@H](CC(C)C)C(=O)N[C@H](CCCCN)C(=O)N[C@H](C)C(=O)N[C@H](CO)C(=O)N[C@H](CC(C)C)C(=O)N[C@H](CCCCN)C(=O)N[C@H](CC(C)C)C(=O)N[C@H](CC(C)C)C(N)=O)[C@H](C)CC [PEG-pro-DGL13K, PEG-d-Leu-Gly-Gly-d-Ala-Gly-d-Lys-d-Ile-d-Ile-d-Lys-d-Leu-d-Lys-d-Ala-d-Ser-d-Leu-d-Lys-d-Leu-d-Leu-CONH2] (H-[PEG1][dL]GG[dA]G[dK][dI][dI][dK][dL][dK][dA][dS][dL][dK][dL][dL]-NH2) |  |  | 1000 µg/mL |  |  |  | 5.2 µg/mL | 10.4 µg/mL |  | less toxic
H-GKIIKLKASLKLL-NH2 [LGL13K] |  |  | 188 µg/mL | formed hydrogels |  | prevented the growth | 20.8 µg/mL | 10.4 µg/mL | not soluble | 
PEG-d-Glu-d-Glu-d-Glu-d-Glu-d-Leu-Gly-Gly-d-Ala-Gly-d-Lys-d-Ile-d-Ile-d-Lys-d-Leu-d-Lys-d-Ala-d-Ser-d-Leu-d-Lys-d-Leu-d-Leu-CONH2 ({PEG}-[dE][dE][dE][dE][dL]GG[dA]G[dK][dI][dI][dK][dL][dK][dA][dS][dL][dK][dL][dL]-NH2; reading uncertain) [PEG-E4-pro-DGL13K] |  |  |  | did not form hydrogels |  |  |  |  |  | 
polymyxin B [reference compound] |  |  |  | does not form hydrogel |  |  |  |  |  | 
